Measured values: patent US7312196B2, “Formulations for amylin agonist peptides” (Amylin Pharmaceuticals, Inc., priority 1998, dated 2007)

Experiments:
Assay type in all cases: physicochemical
[1] = pH-rate profile: stability of the peptide at pH 4.0-5.5, 45° C.; details: 60 mM acetate buffer, 4.1% mannitol, 0.3% m-cresol
Procedure: This example describes two preferred liquid formulations for pramlintide. Major degradation pathways for the peptide are […] and peptide bond hydrolysis. Therefore, the stability of the peptide was investigated in the pH region of 4.0-5.5 at 45° C. […] The following formulation was developed: […]

[2] = adsorption onto glass container in liquid form
Text: However, with regard to amylin agonists or amylins which do have such a tendency when in liquid form, a surfactant should be used in their formulation. These formulations may then be lyophilized. Surfactants frequently cause denaturation of protein, both of hydrophobic disruption and by salt bridge separation. Relatively low concentrations of surfactant may exert a potent denaturing activity, because of the strong interactions between surfactant moieties and the reactive sites on proteins. However, judicious use of this interaction can stabilize proteins against interfacial or surface denaturation. Surfactants which could further stabilize the peptide may optionally be present in the range of about 0.001 to 0.3% (w/v) of the total formulation and include polysorbate 80 (i.e., polyoxyethylene(20) sorbitan monooleate), CHAPS® (i.e., 3-[(3-cholamidopropyl) dimethylammonio] 1-propanesulfonate), Brij® (e.g., Brij 35, which is (polyoxyethylene (23) lauryl ether), poloxamer, or another non-ionic surfactant.

[3] = short term mixing compatibility with insulin in the same syringe; details: depending on type of insulin and volume ratio
Text: The formulations reported in Tables A and B are also compatible when mixed in a syringe with commercially available insulin products. […] As outlined by Brange et al, “Insulin Structure and Stability,” in Stability and Characterization of Protein and Peptide Drugs: Case Histories, 1993, Wang et al. (Ed), Plenum Press, NY, insulin has an isoelectric precipitation zone pH range of 4.5-6.5, within 1 pH unit from isoelectric point. Therefore, while not seeking to be bound by theory, if the pH of the insulin product drops from 7.2±0.2 to pH in the isoelectric precipitation range it may cause insulin to precipitate. Thus, clarity of the solution mixture was used as a criteria for preliminary compatibility studies. The insulin volumes used in this study (Table C) cover the maximum and minimum ranges typical for Type I diabetic patients. The formulation with higher buffer capacity (Table C) forms a clear solution faster than the lower buffer capacity formulation. However, at 0.01% of the peptide label strength both formulations form a clear solution with insulin within approximately one minute. In a syringe, one minute can be considered to be instantaneous mixing. The higher label strength of the peptide (0.015% or higher) results in lower dose volume and may require longer than a minute to form a clear solution. […]

CC[C@H](C)[C@H](NC(=O)[C@@H]1CCCN1C(=O)CNC(=O)[C@H](Cc1ccccc1)NC(=O)[C@H](CC(N)=O)NC(=O)[C@H](CC(N)=O)NC(=O)[C@H](CO)NC(=O)[C@H](CO)NC(=O)[C@H](Cc1c[nH]cn1)NC(=O)[C@@H](NC(=O)[C@H](CC(C)C)NC(=O)[C@H](Cc1ccccc1)NC(=O)[C@H](CC(N)=O)NC(=O)[C@H](C)NC(=O)[C@H](CC(C)C)NC(=O)[C@H](CCCNC(=N)N)NC(=O)[C@H](CCC(N)=O)NC(=O)[C@@H](NC(=O)[C@H](C)NC(=O)[C@@H]1CSSC[C@H](NC(=O)[C@@H](N)CCCCN)C(=O)N[C@@H](CC(N)=O)C(=O)N[C@@H]([C@@H](C)O)C(=O)N[C@@H](C)C(=O)N[C@@H]([C@@H](C)O)C(=O)N1)[C@@H](C)O)C(C)C)C(=O)N[C@@H](CC(C)C)C(=O)N1CCC[C@H]1C(=O)N1CCC[C@H]1C(=O)N[C@H](C(=O)N[C@@H](CC(N)=O)C(=O)N[C@H](C(=O)NCC(=O)N[C@@H](CO)C(=O)N[C@@H](CC(N)=O)C(=O)N[C@H](C(=O)N[C@@H](Cc1ccc(O)cc1)C(N)=O)[C@@H](C)O)C(C)C)[C@@H](C)O [pramlintide, ^25,28,29Pro-h-amylin]
stability of the peptide over the pH range studied [1]: most stable at pH 4.0
tendency to adsorb onto glass [2]: does not have a tendency to adsorb onto the glass
time insulin and peptide formulation can remain in the same syringe retaining activity and stability [3]: at least 24 hours
